Test results from ChEMBL document CHEMBL1201862, “PubChem BioAssay data set” (2004).
Activity calls are given as the source filed them.

Tests used:
[1] = cervical cancer cell viability loss – HeLa, 24 h, plate reader, powder samples, set 3, cytotoxicity control, dose response (AID 651864); format: functional, cell-based
[2] = molecular target: T1, Voltage-gated N-type calcium channel alpha-1B subunit/Amyloid beta A4 precursor protein-binding family A member 1 (Homo sapiens, UniProt Q00975+Q02410); format: protein assay
[3] = molecular target: Glucose-6-phosphate 1-dehydrogenase (Homo sapiens, UniProt P11413); assay: inhibition of Homo sapiens G6PD, dose series – biochemical, fluorescence, selectivity assay for P. falciparum G6PD inhibitor project, dose response (AID 504792); format: functional
[4] = molecular target: T1, Voltage-gated N-type calcium channel alpha-1B subunit/Amyloid beta A4 precursor protein-binding family A member 1; format: protein assay; remark: listed apart in the source
[5] = molecular target: T2, Sentrin-specific protease 8 (Homo sapiens, UniProt Q96LD8); format: functional
T2 sequence (Q96LD8 whole entry): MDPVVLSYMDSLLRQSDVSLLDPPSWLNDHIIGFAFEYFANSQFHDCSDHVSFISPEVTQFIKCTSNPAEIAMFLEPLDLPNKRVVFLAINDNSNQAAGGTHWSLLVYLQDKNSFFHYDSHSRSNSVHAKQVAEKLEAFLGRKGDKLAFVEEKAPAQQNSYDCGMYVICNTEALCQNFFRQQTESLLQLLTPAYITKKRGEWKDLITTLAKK

[6] = molecular target: T2, Sentrin-specific protease 8; format: functional; remark: listed apart in the source
fMet-Leu-Phe receptor = fMet-Leu-Phe receptor (Homo sapiens, UniProt P21462); assay: formyl peptide receptor binders – dose response (AID 519); format: functional
[7] = viability loss in HepG2 hepatoma cells – cell-based, ATP luminescence, cherry-pick, activator set 2, cytotoxicity control, dose response (AID 1053143); format: functional
[8] = molecular target: Matrix metalloproteinase-14 (Homo sapiens, UniProt P50281); assay: Dose Response confirmation of uHTS hits for a small molecule inhibitors of MT1-MMP activation in a fluorescence assay set 1.; format: functional
INS1 = assay: INS-1E survival protection against cytokine death – cell-based, luminescence, retest, dose response (AID 449756); format: functional; settings: Rattus norvegicus;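 note: cell death triggered by IL-1 beta plus TNF-alpha plus IFN-gamma mixture; protective hits raise ATP signal compared with cytokine alone wells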
[9] = A549 cell cytotoxicity, dose response, cytotoxicity control, plate reader, cherry-pick, antagonist series (AID 743412); format: functional, cell-based
cells [10] = format: functional, cell-based
[11] = DRD fibroblast viability loss – cell-based, non-viral oncogenic, luminescence, dose response (AID 1934); format: functional; settings: Homo sapiens
BJ [12] = assay: BJ-TERT fibroblast viability loss – cell-based, RAS-independent, luminescence, dose response (AID 1933); format: functional; settings: Homo sapiens
[13] = blockade of melanocortin 4 receptor signaling – cell-based, plate reader, cherry pick, counter-screen for LGR2 antagonist project, dose response (AID 743444); format: functional;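 note: transfected HEK 293 cells stimulated with alpha-MSH peptide; potency of inhibitors of the alpha-MSH evoked signal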
[14] = viability loss in HEK293 cells – cell-based, plate reader, cherry-picked samples, cytotoxicity control, dose response (AID 743446); format: functional
BJ [15] = assay: cells; format: functional, cell-based; settings: Homo sapiens
cells [16] = format: functional, cell-based; remark: listed apart in the source
[17] = blockers of bursicon-stimulated LGR2 cAMP reporter – cell-based, HEK293, CRE-luciferase reporter, cherry pick, set 2, dose response (AID 743343); format: functional;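 note: transfected cells were stimulated with diluted bursicon conditioned medium after compound addition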
[18] = toxicity toward HepG2 liver cells – cell-based, plate reader, cherry-pick, antagonist series, cytotoxicity control, dose response (AID 743416); format: functional
BJ [19] = assay: BJ-TERT-LT-ST fibroblast viability loss – cell-based, RAS-independent, luminescence, dose response (AID 1935); format: functional; settings: Homo sapiens;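 note: BJ fibroblasts immortalized with TERT plus LT and ST oncogenes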
[20] = molecular target: Luciferin 4-monooxygenase (Photinus pyralis, UniProt P08659); assay: inhibition of purified Photinus pyralis luciferase – biochemical, luminescence, dose response (AID 1891)
[21] = Luminescence Cell-Based Dose Confirmation HTS to Identify Inhibitors of Platelet Dense Granule Release. [Related pubchem assays: 1663 (Primary HTS), 1678 (Summary of Project)]; format: functional
[22] = molecular target: ATP-dependent translocase ABCB1 (Homo sapiens, UniProt P08183); assay: inhibition of P-gp mediated JC-1 efflux – Jurkat-DNR cells, flow cytometry, dose response (AID 1689); format: functional
[23] = molecular target: Broad substrate specificity ATP-binding cassette transporter ABCG2 (Homo sapiens, UniProt Q9UNQ0); assay: blockers of JC-1 export by ABCG2 – Ig-MXP3 cells, flow cytometry, dose response (AID 1690); format: functional
[24] = molecular target: Long-chain-fatty-acid--AMP ligase FadD28 (Mycobacterium tuberculosis, UniProt P9WQ59); assay: Fluorescence polarization aasay to screen for inhibitors that compete for the binding of FadD28 to a bisubstrate Measured in Biochemical System Using Plate Reader - 2147-01_Inhibitor_Dose_CherryPick_Activity.; format: functional, Mycobacterium tuberculosis H37Rv
[25] = loss of viability in HepG2 cells – cell-based, CellTiter-Glo, cherry-picked, cytotoxicity control for Shn3 inhibitor project, dose response (AID 624134); format: functional
[26] = non-specific 3'UTR reporter inhibition in Clone20-Shn3RL – cell-based, Renilla luciferase, cherry-picked, counter-screen for Shn3 inhibitor project, dose response (AID 624133); format: functional
[27] = reduction of Shn3 3'UTR-driven luciferase in osteoblasts – cell-based, Clone20 osteoblasts, firefly luciferase, cherry-picked, dose response (AID 624132); format: functional;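 note: firefly luciferase luminescence from reporter carrying the Shn3 3'UTR in osteoblasts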
[28] = Shn3 3'UTR reporter signal decrease – cell-based, Clone20 osteoblasts, firefly luciferase, cherry-pick, set 2, Schnurri-3 inhibitor project, dose response (AID 720490); format: functional;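 note: actives lower the luminescence signal as inhibitors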
A549 = assay: viability loss in A549 cells – cell-based, plate reader, cherry-pick samples, cytotoxicity control, dose response (AID 687028); format: functional; settings: Homo sapiens
Vero = assay: cells; format: functional; settings: Chlorocebus sabaeus
[29] = viability loss in HeLa cells – cytotoxicity control for MgcRacGAP inhibitor project, dose response (AID 624300); format: functional
[30] = miR-122Act:qPCR miR-122 Measured in Cell-Based System Using RT-PCR - 2144-04_Activator_Dose_CherryPick_Activity. (absACnn = the concentration at which the curve crosses threshold nn uM); format: functional
[31] = activation of miR-122 Renilla sensor silencing – cell-based, Huh7 psiCHECK-miR122, Renilla luciferase, cherry-picked, dose response (AID 651956); format: functional;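 note: huh7 hepatoma cells stably carrying a psiCHECK-2 miR-122 sensor plasmid; renilla luciferase signal reporting endogenous miR-122 activity after 48 h compound exposure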
[32] = cytotoxicity in HEK293 background cells – cell-based, dry powder, set 2, counter-screen for EBV LMP1 inhibitor project, dose response (AID 624374); format: functional
[33] = liver cell line viability loss – HepG2, luminescence plate reader, powder samples, set 2, cytotoxicity control, dose response (AID 651860); format: functional, cell-based
[34] = molecular target: Metabotropic glutamate receptor 3 (Rattus norvegicus, UniProt P31422); assay: inhibitors of rat mGlu3 Galpha15 signaling – TREx293 cells, calcium flux, mGlu3 NAM project, dose response (AID 651840); format: functional
[35] = anti-trypanosomal activity in BESM host cells – imaging, CA-I/72 strain, bovine embryo skeletal muscle, dry powder, dose response (AID 651885); format: functional, cell-based
[36] = T. cruzi growth inhibition in host cells, dose response, cell-based, plate reader, dry powder, set 2 (AID 652275); format: functional
[37] = molecular target: Potassium channel subfamily K member 3 (Homo sapiens, UniProt O14649); assay: inhibition of human KCNK3 channel flux – CHO cells, FluxOR thallium flux, SAR follow-up (AID 652212); format: functional
[38] = molecular target: Potassium channel subfamily K member 9 (Homo sapiens, UniProt Q9NPC2); assay: KCNK9 flux blockade, concentration-response – cell-based, FluxOR thallium flux, selectivity assay for TASK1 inhibitor project, SAR follow-up (AID 652211); format: functional;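 note: potency is for inhibitors of the channel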
[39] = inhibitors of non-replicating M. tuberculosis, dose response, luciferase, dry powder (AID 651619); format: functional; settings: Mycobacterium tuberculosis
[40] = inhibitors of non-replicating M. tuberculosis, dose response, luciferase, dry powder (AID 651620); format: functional; settings: Mycobacterium tuberculosis
Protein Wnt-3a = Protein Wnt-3a (Mus musculus, UniProt P27467); assay: SAR analysis of small molecule antagonists of Gli-SUFU in a Wnt3a luminescent reporter assay.; format: functional
[41] = viability loss in THP-1 monocytes – THP-1 cells, cytotoxicity control for Vif-APOBEC3G degradation inhibitor project, dose response (AID 1117359); format: functional; settings: THP-1
cells [42] = settings: A549
[43] = molecular target: Induced myeloid leukemia cell differentiation protein Mcl-1 (Homo sapiens, UniProt Q07820); format: functional
[44] = reduced cellular PGC1a acetyl-lysine signal – cell-based, cherry-picked samples, dose response (AID 720514); format: functional;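 note: potency may reflect raised or lowered acetylation signal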

T1 sequence (Q00975 whole entry): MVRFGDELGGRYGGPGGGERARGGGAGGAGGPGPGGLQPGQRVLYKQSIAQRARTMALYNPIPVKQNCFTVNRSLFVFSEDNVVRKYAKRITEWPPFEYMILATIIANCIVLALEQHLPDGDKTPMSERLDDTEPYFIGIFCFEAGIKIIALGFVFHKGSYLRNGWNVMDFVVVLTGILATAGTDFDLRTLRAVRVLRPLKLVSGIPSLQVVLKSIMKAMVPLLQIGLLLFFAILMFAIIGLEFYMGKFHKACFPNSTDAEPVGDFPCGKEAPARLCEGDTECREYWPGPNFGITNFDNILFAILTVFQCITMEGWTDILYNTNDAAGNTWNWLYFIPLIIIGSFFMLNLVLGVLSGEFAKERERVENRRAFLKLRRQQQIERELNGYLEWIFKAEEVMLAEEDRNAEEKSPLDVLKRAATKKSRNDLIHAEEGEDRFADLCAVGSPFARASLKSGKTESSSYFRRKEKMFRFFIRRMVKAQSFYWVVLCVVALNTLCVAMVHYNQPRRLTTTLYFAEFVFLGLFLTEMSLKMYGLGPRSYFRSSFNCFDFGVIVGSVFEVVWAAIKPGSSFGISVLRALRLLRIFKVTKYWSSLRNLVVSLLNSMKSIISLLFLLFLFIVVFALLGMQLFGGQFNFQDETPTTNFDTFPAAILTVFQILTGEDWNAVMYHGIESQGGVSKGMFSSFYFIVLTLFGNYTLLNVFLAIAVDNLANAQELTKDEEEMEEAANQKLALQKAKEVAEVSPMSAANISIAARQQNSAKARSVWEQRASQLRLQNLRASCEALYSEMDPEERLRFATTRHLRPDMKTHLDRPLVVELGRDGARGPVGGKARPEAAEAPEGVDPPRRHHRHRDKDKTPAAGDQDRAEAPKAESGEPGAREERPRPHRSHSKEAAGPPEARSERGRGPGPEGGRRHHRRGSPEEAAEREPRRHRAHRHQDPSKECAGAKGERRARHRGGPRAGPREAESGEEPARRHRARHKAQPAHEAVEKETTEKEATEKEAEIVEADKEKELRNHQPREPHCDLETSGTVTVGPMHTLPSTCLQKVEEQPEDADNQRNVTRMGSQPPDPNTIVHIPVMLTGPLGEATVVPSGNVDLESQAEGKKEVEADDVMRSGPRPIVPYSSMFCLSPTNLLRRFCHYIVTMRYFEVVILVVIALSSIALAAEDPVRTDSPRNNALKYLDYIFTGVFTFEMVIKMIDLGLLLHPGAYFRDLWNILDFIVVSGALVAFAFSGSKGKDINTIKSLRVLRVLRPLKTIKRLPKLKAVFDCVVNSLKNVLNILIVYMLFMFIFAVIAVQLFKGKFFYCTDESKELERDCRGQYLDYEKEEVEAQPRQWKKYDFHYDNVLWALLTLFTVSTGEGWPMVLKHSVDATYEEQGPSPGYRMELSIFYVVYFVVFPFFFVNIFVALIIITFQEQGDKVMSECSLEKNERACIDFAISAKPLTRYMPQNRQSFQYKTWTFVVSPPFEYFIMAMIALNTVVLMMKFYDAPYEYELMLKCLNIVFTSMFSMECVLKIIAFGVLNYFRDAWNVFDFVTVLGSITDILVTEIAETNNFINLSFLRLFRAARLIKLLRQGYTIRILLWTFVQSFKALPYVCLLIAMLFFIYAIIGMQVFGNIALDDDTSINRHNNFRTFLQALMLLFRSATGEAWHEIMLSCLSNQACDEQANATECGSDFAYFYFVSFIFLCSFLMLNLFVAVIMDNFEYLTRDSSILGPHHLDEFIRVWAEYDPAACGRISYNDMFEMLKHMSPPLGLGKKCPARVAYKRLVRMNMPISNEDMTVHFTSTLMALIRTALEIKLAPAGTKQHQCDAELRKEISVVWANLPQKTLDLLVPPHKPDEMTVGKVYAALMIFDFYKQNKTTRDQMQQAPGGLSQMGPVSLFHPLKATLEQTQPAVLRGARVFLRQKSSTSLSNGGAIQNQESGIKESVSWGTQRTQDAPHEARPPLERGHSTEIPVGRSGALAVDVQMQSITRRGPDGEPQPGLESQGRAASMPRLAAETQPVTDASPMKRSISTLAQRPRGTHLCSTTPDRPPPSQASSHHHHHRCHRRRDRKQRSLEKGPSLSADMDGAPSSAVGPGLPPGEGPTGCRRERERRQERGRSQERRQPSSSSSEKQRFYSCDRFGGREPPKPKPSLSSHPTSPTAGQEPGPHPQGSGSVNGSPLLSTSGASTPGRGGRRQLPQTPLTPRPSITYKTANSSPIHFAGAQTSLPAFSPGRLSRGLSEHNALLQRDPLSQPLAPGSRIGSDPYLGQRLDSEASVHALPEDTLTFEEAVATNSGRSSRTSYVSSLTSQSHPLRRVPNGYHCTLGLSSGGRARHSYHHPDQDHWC
T1 sequence (Q02410 whole entry): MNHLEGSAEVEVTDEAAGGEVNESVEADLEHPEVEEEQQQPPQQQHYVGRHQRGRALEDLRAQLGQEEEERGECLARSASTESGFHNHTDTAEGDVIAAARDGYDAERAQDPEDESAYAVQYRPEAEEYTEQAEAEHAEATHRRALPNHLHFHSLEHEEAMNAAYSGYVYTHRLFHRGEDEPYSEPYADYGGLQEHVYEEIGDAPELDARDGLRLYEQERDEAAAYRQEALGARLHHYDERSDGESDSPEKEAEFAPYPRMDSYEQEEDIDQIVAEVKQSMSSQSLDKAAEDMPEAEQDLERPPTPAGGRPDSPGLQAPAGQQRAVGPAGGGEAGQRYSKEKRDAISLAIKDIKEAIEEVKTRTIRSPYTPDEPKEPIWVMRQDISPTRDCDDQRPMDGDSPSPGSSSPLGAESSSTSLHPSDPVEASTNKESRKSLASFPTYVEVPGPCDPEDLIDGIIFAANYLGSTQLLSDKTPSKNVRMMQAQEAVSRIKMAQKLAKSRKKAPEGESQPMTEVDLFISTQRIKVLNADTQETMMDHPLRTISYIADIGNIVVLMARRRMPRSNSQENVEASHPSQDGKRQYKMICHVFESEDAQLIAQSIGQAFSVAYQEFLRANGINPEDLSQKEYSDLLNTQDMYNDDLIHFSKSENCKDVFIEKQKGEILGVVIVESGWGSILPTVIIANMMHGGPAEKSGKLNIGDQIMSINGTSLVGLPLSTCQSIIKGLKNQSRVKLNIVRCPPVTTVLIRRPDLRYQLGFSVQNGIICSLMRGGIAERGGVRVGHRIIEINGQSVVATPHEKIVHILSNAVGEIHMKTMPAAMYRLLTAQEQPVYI
Broad substrate specificity ATP-binding cassette transporter ABCG2, sequence (Q9UNQ0 whole entry): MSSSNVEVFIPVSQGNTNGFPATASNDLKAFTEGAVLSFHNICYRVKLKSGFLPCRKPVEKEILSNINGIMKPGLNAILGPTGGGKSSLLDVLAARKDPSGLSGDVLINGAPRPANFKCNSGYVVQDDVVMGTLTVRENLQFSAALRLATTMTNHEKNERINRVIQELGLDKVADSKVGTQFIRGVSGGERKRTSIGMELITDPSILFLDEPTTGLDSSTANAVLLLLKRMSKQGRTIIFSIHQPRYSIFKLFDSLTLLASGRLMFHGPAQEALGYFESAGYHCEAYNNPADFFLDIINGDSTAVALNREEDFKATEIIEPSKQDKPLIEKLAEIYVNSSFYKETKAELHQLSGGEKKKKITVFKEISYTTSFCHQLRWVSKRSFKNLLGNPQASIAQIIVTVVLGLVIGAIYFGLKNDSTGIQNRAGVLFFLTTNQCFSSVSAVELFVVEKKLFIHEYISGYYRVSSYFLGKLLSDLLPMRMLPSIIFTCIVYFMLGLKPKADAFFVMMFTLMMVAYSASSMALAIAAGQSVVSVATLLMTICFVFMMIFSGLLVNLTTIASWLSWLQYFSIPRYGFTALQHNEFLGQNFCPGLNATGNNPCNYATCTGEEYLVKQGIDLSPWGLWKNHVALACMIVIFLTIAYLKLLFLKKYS
Long-chain-fatty-acid--AMP ligase FadD28, sequence (P9WQ59 whole entry): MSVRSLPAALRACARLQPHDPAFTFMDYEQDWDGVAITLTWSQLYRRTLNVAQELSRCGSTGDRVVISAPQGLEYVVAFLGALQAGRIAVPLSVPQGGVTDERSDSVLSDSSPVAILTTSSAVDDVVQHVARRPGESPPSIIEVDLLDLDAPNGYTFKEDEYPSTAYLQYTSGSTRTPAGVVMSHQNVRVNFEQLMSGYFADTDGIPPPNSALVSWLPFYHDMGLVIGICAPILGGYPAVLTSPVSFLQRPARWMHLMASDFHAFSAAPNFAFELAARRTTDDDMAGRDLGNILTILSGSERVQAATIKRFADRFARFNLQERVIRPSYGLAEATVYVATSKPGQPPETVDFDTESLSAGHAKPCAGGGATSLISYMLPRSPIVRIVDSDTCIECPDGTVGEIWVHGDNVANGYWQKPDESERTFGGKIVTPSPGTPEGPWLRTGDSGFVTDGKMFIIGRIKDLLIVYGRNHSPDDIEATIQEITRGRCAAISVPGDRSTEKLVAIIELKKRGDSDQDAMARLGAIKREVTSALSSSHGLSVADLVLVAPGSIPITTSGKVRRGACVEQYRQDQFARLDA
Glucose-6-phosphate 1-dehydrogenase, sequence (P11413 whole entry): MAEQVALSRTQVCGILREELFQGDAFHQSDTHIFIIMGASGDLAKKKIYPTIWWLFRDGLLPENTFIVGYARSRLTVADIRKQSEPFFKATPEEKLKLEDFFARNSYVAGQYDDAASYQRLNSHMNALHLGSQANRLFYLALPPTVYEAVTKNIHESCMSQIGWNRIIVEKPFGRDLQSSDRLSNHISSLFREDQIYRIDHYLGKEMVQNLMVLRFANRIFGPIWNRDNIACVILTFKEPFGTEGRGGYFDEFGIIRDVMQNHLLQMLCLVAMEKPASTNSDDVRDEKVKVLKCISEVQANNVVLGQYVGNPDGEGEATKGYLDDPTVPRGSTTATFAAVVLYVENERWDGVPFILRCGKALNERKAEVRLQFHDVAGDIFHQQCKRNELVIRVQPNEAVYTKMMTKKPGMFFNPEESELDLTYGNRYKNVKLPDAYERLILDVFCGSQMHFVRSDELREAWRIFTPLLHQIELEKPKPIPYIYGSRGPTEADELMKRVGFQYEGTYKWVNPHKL

CCCn1nnnc1NCc1ccc(N2CCCC2)cc1
AC50 [1]: > 160 µM (inactive)

COc1ccc2ccccc2c1C1CC(=O)N2CN(C3CCCCC3)CSC2=C1C#N (centres undefined)
IC50 [2]: > 50 µM (inactive) | IC50 [3]: > 80 µM (inactive) | IC50 [4]: > 56.8 µM (not active) | IC50 [5]: 632 nM (active) | IC50 [6]: 5.43 µM (active) | Ki (fMet-Leu-Phe receptor): 19.7 µM (inactive)

Cc1ccc(-c2noc(-c3ccccc3F)n2)cc1
AC50 [7]: 26 µM (active)

CCCN1/C(=C2/SC(=S)N(CC)C2=O)C=Cc2ccccc21
IC50 [8]: 30.6 µM (inactive)

Cc1nc2cc(-c3ccccc3)sc2c(=O)n1N
AC50 (INS1): 3.95 µM (active) | AC50 [9]: 5.97 µM (active) | EC50 (cells [10]): 7.12 µM (active) | EC50 [11]: 3.78 µM (active) | EC50 (BJ [12]): 5.93 µM (active) | AC50 [13]: 1.17 µM (active) | AC50 [14]: 5.12 µM (active) | EC50 (BJ [15]): 2.32 µM (inconclusive) | EC50 (cells [16]): > 350 µM (not active) | AC50 [17]: 868 nM (active) | AC50 [18]: 5.13 µM (active) | EC50 (BJ [19]): 12 µM (active) | EC50 [20]: 546 nM (active) | EC50 [21]: 365 nM (active)

N#Cc1ccc(COC(=O)c2ccc(N3CCCC3)c([N+](=O)[O-])c2)cc1
EC50 [22]: 12 µM (inactive) | EC50 [23]: 450 nM (inactive)

O=C(NC(NC(=S)N1CCOCC1)C(Cl)(Cl)Cl)c1cccc2ccccc12 (centres undefined)
AC50 [24]: > 100 µM (inactive)

CC(=O)Nc1ccc(OCC(=O)Nc2ccc(Cl)c(S(=O)(=O)N3CCOCC3)c2)cc1
AC50 [25]: 53.5 µM (active) | AC50 [26]: 9.23 µM (active) | AC50 [27]: 1.59 µM (active) | AC50 [28]: 3.49 µM (active)

COc1ccc(-c2cc(NC=O)c3ncc(-c4cc(OC)c(OC)c(OC)c4)n3c2)c(OC)c1
AC50 (A549): 13.6 µM (active)

O=[N+]([O-])/C=C/c1cc2ccccc2[nH]1
CC50 (Vero): > 25 µM (active) | CC50 [29]: 94.6 µM (active)

Cc1cccc(NC(=O)Nc2ccc3c(c2)C(=O)N(C)[C@@H]2CC[C@H](CC(=O)NCc4ccccc4Cl)O[C@H]2CO3)c1
AbsAC40_uM [30]: 8.38 µM | AC50 [31]: 9.59 µM (active)

C[C@@H]1CN([C@@H](C)CO)C(=O)Cc2cc(NC(=O)Cc3ccccc3)ccc2O[C@@H]1CN(C)Cc1ccc(C(F)(F)F)cc1
AbsAC35 [32]: 279.95 µM

O=C(O)[C@@H]1CCCC[C@@H]1C(=O)N1CCc2ccccc2[C@@H]1CN1C(=O)c2ccccc2C1=O
AC50 [33]: > 52 µM (inactive)

COc1ccc(C#Cc2ccc(C(=O)NC(C)CO)cc2)cc1 (centres undefined)
IC50 [34]: 4.73 µM

C[C@H]1CN([C@@H](C)CO)C(=O)c2cccc(NC(=O)c3ccncc3)c2O[C@@H]1CN(C)Cc1ccncc1
IC50 [35]: > 20 µM (inactive)

C[C@H]1CN([C@@H](C)CO)C(=O)c2cccc(NC(=O)c3ccncc3)c2O[C@@H]1CN(C)Cc1cccc(Cl)c1Cl
AC50 [36]: 25.5 nM (active)

CCOc1ccccc1NC(=O)c1cccc(NC(=O)C2CC2)c1
IC50 [37]: 1.07 µM (active) | IC50 [38]: 10.2 µM (active)

c1ccc(CSc2nnc(-c3ccncc3)o2)nc1
IC90 [39]: 16 µM (active) | IC90 [40]: 16 µM (active)

CC(C)(C)OC(=O)N1CCN(c2cc(NC(=O)c3ccccc3)ncn2)CC1
IC50 (Protein Wnt-3a): > 21.8 µM (inactive)

Cc1cccn2c(=O)c3cc(C(=O)NCc4ccco4)c(=N)n(CCc4ccccc4)c3nc12
CC50 [41]: 38.1 µM (active) | AC50 (cells [42]): 39.9 µM (active) | IC50 [43]: 3.57 µM (active) | AC50 [44]: 28.4 µM (active)
